Measured values as given in ChEMBL document CHEMBL1145312, “Structure-activity relationships of triazolopyridine oxazole p38 inhibitors: identification of candidates for clinical development” (Bioorg Med Chem Lett, 2006).
≈ marks a conversion by molar mass, not a printed value. Each block holds one molecule with its values, some of them ahead of it.

Key:
[1] = Solubility in PBS buffer at ph 6.5; type: physicochemical
[2] = Volume of distribution in rat; type: ADME, organism-based; conditions: in vivo, read-out: Vdss
[3] = Half life in rat; type: ADME, organism-based; conditions: in vivo
[4] = Bioavailability in rat; type: ADME, organism-based; conditions: in vivo
[5] = Plasma clearance in monkey; type: ADME, organism-based, Macaca mulatta; conditions: rhesus monkey
[6] = Volume of distribution in monkey; type: ADME, organism-based, Macaca mulatta; conditions: rhesus monkey, in vivo; read-out: Vdss
[7] = Half life in monkey; type: ADME, organism-based, Macaca mulatta; conditions: rhesus monkey, in vivo
[8] = Bioavailability in monkey; type: ADME, organism-based, Macaca mulatta; conditions: rhesus monkey, in vivo
[9] = Distribution coefficient, log D of the compound; type: physicochemical; conditions: octanol/water
[10] = Plasma clearance in rat; type: ADME, organism-based
[11] = Dissociation constant, pKa of the compound; type: physicochemical
[12] = test system: Monocyte; test: Inhibition of LPS-induced TNFalpha production in human monocytes; type: functional, cell-based
[13] = target: T1, hERG (KCNH2) (Homo sapiens, UniProt Q12809); test: Inhibition of hERG channel current in HEK293 cells at 3 uM; type: toxicity, cell-based; conditions: HEK293 cells that express hERG
[14] = species on record: Rattus norvegicus; test: Inhibition of LPS-induced TNFalpha release in rat; type: functional
[15] = target: Mitogen-activated protein kinase 14 (Homo sapiens, UniProt Q16539); test: Inhibition of p38alpha
[16] = species on record: Homo sapiens; test: Inhibition of LPS-induced TNFalpha production in human whole blood; type: functional, organism-based
[17] = target: Dual specificity mitogen-activated protein kinase kinase 1 (Homo sapiens, UniProt Q02750); test: Inhibition of MKK1
[18] = target: c-Jun N-terminal kinase, JNK (Homo sapiens, UniProt P45983+P53779+P45984); test: Inhibition of JNK; type: protein assay
[19] = target: Ribosomal protein S6 kinase alpha-1 (Homo sapiens, UniProt Q15418); test: Inhibition of MAPKAP-K1a
[20] = target: MAP kinase-activated protein kinase 2 (Homo sapiens, UniProt P49137); test: Inhibition of MAPKAP-K2
[21] = target: Ribosomal protein S6 kinase alpha-5 (Homo sapiens, UniProt O75582); test: Inhibition of MSK1
[22] = target: T2, MAP kinase-activated protein kinase 5 (Homo sapiens, UniProt Q8IW41); test: Inhibition of PRAK
T2 sequence (Q8IW41 whole entry): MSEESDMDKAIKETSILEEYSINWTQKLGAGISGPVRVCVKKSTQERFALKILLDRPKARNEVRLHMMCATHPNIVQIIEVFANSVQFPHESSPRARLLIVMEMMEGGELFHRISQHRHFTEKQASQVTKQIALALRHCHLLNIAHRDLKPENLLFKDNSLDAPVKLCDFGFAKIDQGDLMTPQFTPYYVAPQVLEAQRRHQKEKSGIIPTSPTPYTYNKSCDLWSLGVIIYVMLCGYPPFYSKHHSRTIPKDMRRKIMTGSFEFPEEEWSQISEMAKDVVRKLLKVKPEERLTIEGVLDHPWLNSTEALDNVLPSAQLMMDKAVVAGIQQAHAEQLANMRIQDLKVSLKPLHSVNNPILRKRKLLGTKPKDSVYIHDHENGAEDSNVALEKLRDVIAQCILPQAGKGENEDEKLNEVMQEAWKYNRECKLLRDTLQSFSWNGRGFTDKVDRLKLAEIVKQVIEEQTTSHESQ

[23] = target: Protein kinase C alpha type (Homo sapiens, UniProt P17252); test: Inhibition of PKCalpha
[24] = Inhibition of PKC
[25] = target: T3, 3-phosphoinositide-dependent protein kinase 1 (Homo sapiens, UniProt O15530); test: Inhibition of PDK1
T3 sequence (O15530 whole entry): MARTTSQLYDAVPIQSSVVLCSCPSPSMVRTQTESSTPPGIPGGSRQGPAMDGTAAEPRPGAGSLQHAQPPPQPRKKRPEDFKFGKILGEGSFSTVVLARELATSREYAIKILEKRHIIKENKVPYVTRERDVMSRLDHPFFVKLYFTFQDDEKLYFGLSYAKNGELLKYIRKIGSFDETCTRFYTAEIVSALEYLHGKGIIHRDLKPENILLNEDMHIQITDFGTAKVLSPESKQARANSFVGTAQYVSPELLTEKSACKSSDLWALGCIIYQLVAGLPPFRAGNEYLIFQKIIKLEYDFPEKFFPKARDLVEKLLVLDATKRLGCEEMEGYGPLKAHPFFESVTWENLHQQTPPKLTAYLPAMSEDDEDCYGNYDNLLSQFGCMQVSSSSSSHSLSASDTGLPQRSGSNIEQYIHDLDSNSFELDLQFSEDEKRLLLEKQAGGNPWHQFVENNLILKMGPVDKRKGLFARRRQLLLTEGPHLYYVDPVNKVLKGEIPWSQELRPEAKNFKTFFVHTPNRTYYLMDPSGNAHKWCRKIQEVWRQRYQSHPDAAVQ

[26] = target: T4, Serine/threonine-protein kinase Sgk1 (Homo sapiens, UniProt O00141); test: Inhibition of SGK
T4 sequence (O00141 whole entry): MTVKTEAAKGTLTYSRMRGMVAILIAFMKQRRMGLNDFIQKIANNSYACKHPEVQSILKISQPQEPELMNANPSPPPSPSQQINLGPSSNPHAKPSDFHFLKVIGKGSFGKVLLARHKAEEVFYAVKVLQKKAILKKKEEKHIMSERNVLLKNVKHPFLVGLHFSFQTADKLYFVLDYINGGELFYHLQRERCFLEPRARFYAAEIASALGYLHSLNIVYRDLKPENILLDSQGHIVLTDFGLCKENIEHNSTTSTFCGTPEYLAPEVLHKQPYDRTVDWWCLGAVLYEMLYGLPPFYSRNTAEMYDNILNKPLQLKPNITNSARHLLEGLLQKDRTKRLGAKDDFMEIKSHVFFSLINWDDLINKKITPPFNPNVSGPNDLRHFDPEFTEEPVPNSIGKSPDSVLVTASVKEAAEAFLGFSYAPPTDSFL

[27] = target: RAC-alpha serine/threonine-protein kinase (Homo sapiens, UniProt P31749); test: Inhibition of PKBalpha
[28] = target: Ribosomal protein S6 kinase (P70S6K) (Homo sapiens, UniProt P23443+Q9UBS0); test: Inhibition of P70S6K; type: protein-complex assay
[29] = target: Glycogen synthase kinase-3 beta (Homo sapiens, UniProt P49841); test: Inhibition of GSK3-beta
[30] = target: Rho-associated protein kinase 2 (Homo sapiens, UniProt O75116); test: Inhibition of ROCK2
[31] = target: AMP-activated protein kinase, AMPK; test: Inhibition of AMPK; type: protein-complex assay
[32] = target: T5, Serine/threonine-protein kinase Chk1 (Homo sapiens, UniProt O14757); test: Inhibition of CHK1
T5 sequence (O14757 whole entry): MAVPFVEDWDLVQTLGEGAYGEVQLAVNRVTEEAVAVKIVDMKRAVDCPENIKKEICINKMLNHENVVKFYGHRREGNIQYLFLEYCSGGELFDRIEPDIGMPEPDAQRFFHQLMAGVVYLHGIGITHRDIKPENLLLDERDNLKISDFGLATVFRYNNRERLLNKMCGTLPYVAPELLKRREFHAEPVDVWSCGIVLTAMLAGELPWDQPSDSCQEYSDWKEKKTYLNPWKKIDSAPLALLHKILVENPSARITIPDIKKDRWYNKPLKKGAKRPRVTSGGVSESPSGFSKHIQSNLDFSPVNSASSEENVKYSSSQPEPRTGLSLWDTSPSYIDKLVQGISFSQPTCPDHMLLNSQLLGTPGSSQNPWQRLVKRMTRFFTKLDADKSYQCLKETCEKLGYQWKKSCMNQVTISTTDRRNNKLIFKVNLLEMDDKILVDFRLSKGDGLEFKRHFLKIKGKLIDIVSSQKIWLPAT

[33] = target: Casein kinase II (Homo sapiens, UniProt P19784+P67870+P68400); test: Inhibition of CK2; type: protein-complex assay
[34] = target: Tyrosine-protein kinase CSK (Homo sapiens, UniProt P41240); test: Inhibition of CSK
[35] = target: Cyclin-dependent kinase 2 (Homo sapiens, UniProt P24941); test: Inhibition of CDK2
[36] = Inhibition of PI3K
[37] = target: Dual specificity tyrosine-phosphorylation-regulated kinase 1A (Homo sapiens, UniProt Q13627); test: Inhibition of DYRK1a
[38] = Inhibition of phosphorylase kinase
[39] = target: Mitogen-activated protein kinase 1 (Homo sapiens, UniProt P28482); test: Inhibition of ERK2
[40] = test system: Rattus norvegicus; test: Inhibition of LPS-induced TNFalpha release in rat at 3 mg/kg; type: functional
[41] = target: T6, Mitogen-activated protein kinase 12 (Homo sapiens, UniProt P53778); test: Inhibition of p38-gamma
T6 sequence (P53778 whole entry): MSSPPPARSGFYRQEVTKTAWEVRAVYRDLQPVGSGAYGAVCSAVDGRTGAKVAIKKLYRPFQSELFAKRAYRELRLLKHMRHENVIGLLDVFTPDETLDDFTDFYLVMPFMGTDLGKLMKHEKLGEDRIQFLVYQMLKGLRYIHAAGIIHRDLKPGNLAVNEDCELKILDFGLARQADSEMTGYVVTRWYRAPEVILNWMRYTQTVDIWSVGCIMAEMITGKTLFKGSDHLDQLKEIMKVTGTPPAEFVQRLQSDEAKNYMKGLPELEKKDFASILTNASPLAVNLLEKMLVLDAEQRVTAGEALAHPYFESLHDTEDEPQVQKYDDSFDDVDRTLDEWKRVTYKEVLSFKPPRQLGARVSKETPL

[42] = target: Tyrosine-protein kinase Lck (Homo sapiens, UniProt P06239); test: Inhibition of Lck
[43] = Permeability from apical to basolateral side of Caco-2 cell membrane; type: ADME, cell-based; conditions: human
[44] = target: T1, hERG (KCNH2); test: Inhibition of hERG channel current in HEK293 cells at 1 uM; type: toxicity, cell-based; conditions: HEK293 cells that express hERG
[45] = Permeability from basolateral to apical side of Caco-2 cell membrane; type: ADME, cell-based; conditions: human

Chain of Mitogen-activated protein kinase 14 (Q16539 whole entry): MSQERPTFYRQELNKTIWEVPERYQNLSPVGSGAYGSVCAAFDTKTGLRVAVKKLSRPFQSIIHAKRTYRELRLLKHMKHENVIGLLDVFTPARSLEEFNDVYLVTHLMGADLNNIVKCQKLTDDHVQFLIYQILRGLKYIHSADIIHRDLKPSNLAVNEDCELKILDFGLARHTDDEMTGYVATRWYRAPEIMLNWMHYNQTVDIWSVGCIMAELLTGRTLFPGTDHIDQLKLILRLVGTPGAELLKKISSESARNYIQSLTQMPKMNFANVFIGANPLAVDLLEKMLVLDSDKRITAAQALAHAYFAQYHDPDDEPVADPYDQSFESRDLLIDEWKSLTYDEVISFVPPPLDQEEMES
T1 sequence (Q12809 whole entry): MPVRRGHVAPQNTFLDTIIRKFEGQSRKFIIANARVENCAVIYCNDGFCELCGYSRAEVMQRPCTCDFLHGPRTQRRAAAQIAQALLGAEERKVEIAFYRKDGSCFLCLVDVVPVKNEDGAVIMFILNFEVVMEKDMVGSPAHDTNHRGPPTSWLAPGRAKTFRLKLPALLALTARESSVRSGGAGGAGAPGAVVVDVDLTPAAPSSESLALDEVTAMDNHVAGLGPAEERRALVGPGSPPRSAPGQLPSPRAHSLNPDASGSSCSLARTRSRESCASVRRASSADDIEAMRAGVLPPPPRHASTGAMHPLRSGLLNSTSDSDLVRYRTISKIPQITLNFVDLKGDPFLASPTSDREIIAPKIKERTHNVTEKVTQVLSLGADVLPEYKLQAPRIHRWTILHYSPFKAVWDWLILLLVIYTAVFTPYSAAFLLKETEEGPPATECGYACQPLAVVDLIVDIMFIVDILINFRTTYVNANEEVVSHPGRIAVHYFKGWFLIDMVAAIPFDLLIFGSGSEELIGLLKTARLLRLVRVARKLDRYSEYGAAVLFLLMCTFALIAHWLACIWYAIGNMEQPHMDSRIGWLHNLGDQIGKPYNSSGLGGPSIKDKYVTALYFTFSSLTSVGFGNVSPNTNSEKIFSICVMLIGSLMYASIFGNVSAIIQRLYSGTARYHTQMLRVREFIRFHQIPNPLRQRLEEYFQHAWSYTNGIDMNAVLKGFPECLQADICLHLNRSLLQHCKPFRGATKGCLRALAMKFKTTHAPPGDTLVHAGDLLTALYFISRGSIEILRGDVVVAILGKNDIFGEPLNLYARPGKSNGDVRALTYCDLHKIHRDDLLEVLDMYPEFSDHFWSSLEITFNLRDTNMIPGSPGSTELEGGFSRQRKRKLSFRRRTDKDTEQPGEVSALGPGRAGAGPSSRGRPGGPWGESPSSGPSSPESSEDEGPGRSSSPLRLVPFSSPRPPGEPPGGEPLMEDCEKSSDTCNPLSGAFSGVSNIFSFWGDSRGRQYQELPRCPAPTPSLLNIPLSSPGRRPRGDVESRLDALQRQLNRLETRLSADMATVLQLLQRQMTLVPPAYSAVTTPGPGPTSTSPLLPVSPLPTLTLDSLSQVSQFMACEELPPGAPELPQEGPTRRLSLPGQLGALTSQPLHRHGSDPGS
Chain of Mitogen-activated protein kinase 1 (P28482 whole entry): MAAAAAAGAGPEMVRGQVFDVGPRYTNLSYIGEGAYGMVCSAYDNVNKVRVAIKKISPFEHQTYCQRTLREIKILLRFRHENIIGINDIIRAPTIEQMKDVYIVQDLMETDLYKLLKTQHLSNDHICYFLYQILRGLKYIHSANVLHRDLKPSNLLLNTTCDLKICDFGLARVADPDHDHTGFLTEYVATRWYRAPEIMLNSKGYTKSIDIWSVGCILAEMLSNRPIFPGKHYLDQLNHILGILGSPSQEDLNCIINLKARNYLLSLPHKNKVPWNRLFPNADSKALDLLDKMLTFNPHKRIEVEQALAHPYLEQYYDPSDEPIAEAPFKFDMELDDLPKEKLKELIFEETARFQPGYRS
Chain of Glycogen synthase kinase-3 beta (P49841 whole entry): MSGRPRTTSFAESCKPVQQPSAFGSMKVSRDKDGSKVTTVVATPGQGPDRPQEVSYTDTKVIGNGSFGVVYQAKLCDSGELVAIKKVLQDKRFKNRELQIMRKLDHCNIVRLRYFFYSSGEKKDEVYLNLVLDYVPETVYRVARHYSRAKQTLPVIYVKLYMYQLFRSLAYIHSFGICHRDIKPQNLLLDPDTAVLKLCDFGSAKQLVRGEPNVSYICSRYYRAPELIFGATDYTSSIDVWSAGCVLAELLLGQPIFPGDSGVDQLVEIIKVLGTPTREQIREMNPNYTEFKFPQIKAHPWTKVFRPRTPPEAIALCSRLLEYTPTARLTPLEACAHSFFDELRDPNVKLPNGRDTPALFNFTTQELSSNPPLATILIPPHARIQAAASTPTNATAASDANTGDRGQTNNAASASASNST
Chain of Casein kinase II (P67870 whole entry): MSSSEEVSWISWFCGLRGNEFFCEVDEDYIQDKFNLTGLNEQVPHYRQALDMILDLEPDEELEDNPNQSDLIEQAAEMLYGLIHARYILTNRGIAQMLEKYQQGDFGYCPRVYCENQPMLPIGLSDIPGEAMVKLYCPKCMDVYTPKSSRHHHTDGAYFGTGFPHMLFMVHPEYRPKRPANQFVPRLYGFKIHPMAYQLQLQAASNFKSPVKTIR
Chain of Casein kinase II (P68400 whole entry): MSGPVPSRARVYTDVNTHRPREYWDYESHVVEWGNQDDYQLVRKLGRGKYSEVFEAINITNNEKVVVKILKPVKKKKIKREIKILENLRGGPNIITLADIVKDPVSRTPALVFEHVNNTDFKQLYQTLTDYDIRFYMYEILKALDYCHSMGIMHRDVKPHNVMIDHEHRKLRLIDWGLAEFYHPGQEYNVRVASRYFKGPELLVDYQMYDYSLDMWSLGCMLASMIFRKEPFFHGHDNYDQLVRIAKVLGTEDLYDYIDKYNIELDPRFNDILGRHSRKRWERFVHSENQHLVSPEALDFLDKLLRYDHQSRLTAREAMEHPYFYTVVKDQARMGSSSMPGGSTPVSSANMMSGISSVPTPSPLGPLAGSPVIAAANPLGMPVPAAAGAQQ
Chain of Casein kinase II (P19784 whole entry): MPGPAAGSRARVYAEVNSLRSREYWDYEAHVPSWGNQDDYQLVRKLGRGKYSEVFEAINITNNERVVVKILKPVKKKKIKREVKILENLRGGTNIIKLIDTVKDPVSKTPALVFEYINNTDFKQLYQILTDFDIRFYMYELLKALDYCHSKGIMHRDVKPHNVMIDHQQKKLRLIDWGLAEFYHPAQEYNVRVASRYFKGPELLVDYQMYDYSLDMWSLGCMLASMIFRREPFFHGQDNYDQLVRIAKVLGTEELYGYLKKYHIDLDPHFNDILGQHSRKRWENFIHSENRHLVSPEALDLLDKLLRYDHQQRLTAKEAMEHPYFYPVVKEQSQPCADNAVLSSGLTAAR
Chain of Ribosomal protein S6 kinase alpha-1 (Q15418 whole entry): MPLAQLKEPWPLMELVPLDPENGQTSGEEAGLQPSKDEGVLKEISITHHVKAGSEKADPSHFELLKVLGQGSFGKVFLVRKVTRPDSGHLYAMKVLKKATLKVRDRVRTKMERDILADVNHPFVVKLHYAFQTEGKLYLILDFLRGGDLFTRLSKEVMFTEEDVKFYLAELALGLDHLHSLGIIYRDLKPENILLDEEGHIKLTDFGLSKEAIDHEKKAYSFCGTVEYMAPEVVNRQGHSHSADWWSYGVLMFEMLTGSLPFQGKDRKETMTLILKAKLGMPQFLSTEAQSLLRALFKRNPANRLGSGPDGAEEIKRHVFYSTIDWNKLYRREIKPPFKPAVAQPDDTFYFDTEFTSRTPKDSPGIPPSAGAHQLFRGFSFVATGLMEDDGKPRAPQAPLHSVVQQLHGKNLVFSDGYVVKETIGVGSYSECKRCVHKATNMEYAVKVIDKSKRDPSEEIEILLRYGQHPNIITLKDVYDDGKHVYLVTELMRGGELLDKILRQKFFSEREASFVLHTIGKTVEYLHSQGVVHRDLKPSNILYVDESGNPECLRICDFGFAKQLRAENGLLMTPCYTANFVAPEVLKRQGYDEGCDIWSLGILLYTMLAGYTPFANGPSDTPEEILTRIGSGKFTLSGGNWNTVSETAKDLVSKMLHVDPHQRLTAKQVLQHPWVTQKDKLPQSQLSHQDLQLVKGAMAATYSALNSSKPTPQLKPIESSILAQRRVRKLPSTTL
Chain of Dual specificity mitogen-activated protein kinase kinase 1 (Q02750 whole entry): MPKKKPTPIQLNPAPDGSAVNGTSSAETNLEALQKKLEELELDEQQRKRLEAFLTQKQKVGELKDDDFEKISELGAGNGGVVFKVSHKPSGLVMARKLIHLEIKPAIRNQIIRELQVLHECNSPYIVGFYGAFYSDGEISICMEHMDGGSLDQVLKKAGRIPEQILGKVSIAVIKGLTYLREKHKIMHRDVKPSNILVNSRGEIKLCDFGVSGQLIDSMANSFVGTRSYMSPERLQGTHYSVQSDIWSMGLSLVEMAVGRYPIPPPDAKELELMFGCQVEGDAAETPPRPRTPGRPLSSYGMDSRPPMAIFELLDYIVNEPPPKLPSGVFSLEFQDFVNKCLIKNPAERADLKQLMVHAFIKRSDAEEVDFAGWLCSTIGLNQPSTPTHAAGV
Chain of RAC-alpha serine/threonine-protein kinase (P31749 whole entry): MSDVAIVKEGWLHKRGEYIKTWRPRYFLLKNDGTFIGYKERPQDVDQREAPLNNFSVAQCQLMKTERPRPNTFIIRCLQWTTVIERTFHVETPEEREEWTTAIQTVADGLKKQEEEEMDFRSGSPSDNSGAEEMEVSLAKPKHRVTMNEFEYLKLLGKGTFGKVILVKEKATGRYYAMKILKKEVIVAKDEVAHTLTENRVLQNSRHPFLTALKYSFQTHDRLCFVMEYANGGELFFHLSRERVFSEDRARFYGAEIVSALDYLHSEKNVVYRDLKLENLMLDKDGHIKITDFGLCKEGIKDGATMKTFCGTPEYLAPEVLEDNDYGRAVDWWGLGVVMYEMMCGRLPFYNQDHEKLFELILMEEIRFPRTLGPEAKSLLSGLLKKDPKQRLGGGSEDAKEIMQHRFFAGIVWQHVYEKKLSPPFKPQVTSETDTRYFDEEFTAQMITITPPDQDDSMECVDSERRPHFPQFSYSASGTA

Structure (SMILES): CC(C)c1nnc2ccc(-c3ocnc3-c3cccc(Cl)c3)cn12
solubility [1]: 5.2 µg/mL (≈ 15.3 µM)
IC50 [12]: 0.0523 µM
Vd [2]: 1 L/kg
half-life [3]: 1.6 h
bioavailability [4]: 37%
clearance [5]: 15 mL/min/kg
Vd [6]: 1 L/kg
half-life [7]: 1.1 h
bioavailability [8]: 19%
inhibition at 3 µM [13]: 14%
ED50 [14]: 2.4 mg/kg
clearance [10]: 17 mL/min/kg
IC50 [15]: 0.0135 µM
IC50 [16]: 0.55 µM

Structure (SMILES): CC(C)c1nnc2ccc(-c3ocnc3-c3cc(F)ccc3F)cn12
solubility [1]: 8.1 µg/mL (≈ 23.8 µM)
IC50 [12]: 0.025 µM
Papp A→B [43]: 43 ×10⁻⁶ cm/s
Vd [2]: 0.8 L/kg
bioavailability [4]: 58%
Vd [6]: 1.3 L/kg
bioavailability [8]: 40%
inhibition at 1 µM [44]: 0%
ED50 [14]: 0.3 mg/kg
IC50 [15]: 0.0058 µM
IC50 [16]: 0.259 µM
Papp B→A [45]: 29 ×10⁻⁶ cm/s

The next lines start with results.

solubility [1]: 29.6 µg/mL (≈ 91.8 µM)
Vd [2]: 0.8 L/kg
half-life [3]: 0.7 h
bioavailability [4]: 85%
clearance [5]: 16 mL/min/kg
Vd [6]: 1.8 L/kg
half-life [7]: 1.3 h
bioavailability [8]: 75%
logD [9]: 2.18
clearance [10]: 12 mL/min/kg
pKa [11]: 2.86
Structure (SMILES): CC(C)c1nnc2ccc(-c3ocnc3-c3ccc(F)cc3)cn12

IC50 [12]: 0.0197 µM
IC50 [17]: > 10 µM
IC50 [15]: 0.0032 µM
IC50 [16]: 0.263 µM
IC50 [18]: > 10 µM
IC50 [19]: > 10 µM
IC50 [20]: > 10 µM
IC50 [21]: > 10 µM
IC50 [22]: > 10 µM
IC50 [23]: > 10 µM
IC50 [24]: > 10 µM
IC50 [25]: > 10 µM
IC50 [26]: > 10 µM
IC50 [27]: > 10 µM
IC50 [28]: > 10 µM
IC50 [29]: > 10 µM
IC50 [30]: > 10 µM
IC50 [31]: > 10 µM
IC50 [32]: > 10 µM
IC50 [33]: > 10 µM
IC50 [34]: > 10 µM
IC50 [35]: > 10 µM
IC50 [36]: > 10 µM
IC50 [37]: > 10 µM
IC50 [38]: > 10 µM
IC50 [39]: > 10 µM
Structure (SMILES): CC(C)c1nnc2ccc(-c3ocnc3-c3cc(F)c(F)cc3F)cn12

solubility [1]: 81 µg/mL (≈ 227 µM)
IC50 [12]: 0.0245 µM
IC50 [41]: > 10 µM
IC50 [17]: > 10 µM
IC50 [15]: 0.0025 µM
IC50 [16]: 0.38 µM
IC50 [18]: > 10 µM
IC50 [19]: > 10 µM
IC50 [20]: > 10 µM
IC50 [21]: > 10 µM
IC50 [22]: > 10 µM
IC50 [23]: > 10 µM
IC50 [24]: > 10 µM
IC50 [26]: > 10 µM
IC50 [27]: > 10 µM
IC50 [28]: > 10 µM
IC50 [29]: > 10 µM
IC50 [30]: > 10 µM
IC50 [31]: > 10 µM
IC50 [32]: > 10 µM
IC50 [33]: > 10 µM
IC50 [42]: > 10 µM
IC50 [34]: > 10 µM
IC50 [35]: > 10 µM
IC50 [36]: > 10 µM
IC50 [37]: > 10 µM
IC50 [38]: > 10 µM
IC50 [39]: > 10 µM
Structure (SMILES): CC(C)c1nnc2ccc(-c3ocnc3-c3ccc(F)cc3Cl)cn12
inhibition at 3 µM [13]: 0%
inhibition in vivo at 3 mg/kg [40]: 94%
